Experiments:
[1] = molecular target: RNR (RNR1:RNR2 1:1) (Homo sapiens (Human), UniProt P23921); assay: RNR enzyme activity, rapid-fire mass spectrometry (RF/MS) assay; type: biochemical; settings: RNR 50 nM, 1:1 RNR1:RNR2; CDP 5 μM, ATP 1 mM; 37° C., 45 min; compounds screened up to 50 μM
Protocol: A rapid-fire mass spectrometry (RF/MS) assay was used to assess RNR enzyme activity using a 384 well plate and a robotic platform.
The plate layout included two validated reference compounds (Triapine (3-AP) and Hydroxyurea (HU)): • A dose response in duplicate; top concentration: 5 μM (3-AP) and 250 μM (HU), semi-log • dilutions. • Spike wells in triplicate randomly spotted at four concentrations: • 250 μM, 100 μM, 30 μM and 2 μM for HU • 5 μM, 2 μM, 0.6 μM and 0.04 μM for 3-AP
First, the multidrop pipes were saturated for 30 minutes with enzymatic solution. Then 30 μL of Stop solution was distributed in column 24. Next, 15 μL of enzyme was distributed in column 1 to 24. Next, a pre-incubation step of 15 minutes at room temperature occurred, followed by distribution of 15 μL of substrate solution (column 1 to 24). Next, the plate was incubated for 45 minutes at 37° C. 30 μL of Stop solution was distributed to columns 1 to 23.
The final parameters for the enzyme reactions were: • Incubation: 37° C., 45 min • [CDP]: 5 μM; [ATP]: 1 mM; [NADPH]: No • [RNR]final: 50 nM with 1:1 (RNR1:RNR2) ratio • Final volume: 30 μL • Stop solution: 6% HCOOH containing 2 μM of 15

[2] = tested on: pCHK1 (S345) in Colo320 DM cells; assay: Alphalisa assay: pCHK1 (S345) detection in Colo320 DM cells; type: cell-based, human; settings: Homo sapiens, COLO 320DM, compound incubation overnight (approximately 16 hours), pCHK1 (S345) AlphaLisa Sure Fire kit
Protocol: Colo320 DM cells (ATCC #CCL-220, derived from human colorectal adenocarcinoma, Dukes' type C) were seeded on a 96-well, cell culture treated assay plate at a density of 50,000 cells/well in 200 μL of RPMI-1640 media supplemented with 10% Fetal Bovine Serum and incubated at 37 degrees Celsius overnight. The following day, test compound dilutions were added directly to the plated cells by a Tecan digital dispenser to a final DMSO concentration of <0.5%. and incubated at 37 degrees Celsius overnight (approximately 16 hours). The following day all cull culture media was removed from the cells. 75 μL of 1× AlphaLisa lysis buffer was added to each well and plates were agitated on a shaker for 30 minutes at room temperature. The lysis of cells and detection of pCHK1 (S345) were performed with regents contained within the AlphaLisa Sure Fire assay kit (Perkin Elmer #ALSU-PCHK1-A) according to the manufacturer's instructions. 10 μL of each lysate was then transferred to a white, 384-well assay plate (Perkin Elmer #6008280). 5 μL of Acceptor mix was then added to each well of lysate in the white, 384-well assay plate and incubated in the dark at room temperature for 60 minutes. 5 μL of Donor mix was then added to each well of the white, 384-well assay plate in subdued light and incubated at room temperature for 60 minutes. Plates were read on an Alpha Technology-compatible plate reader using standard AlphaLisa settings.

RNR (RNR1:RNR2 1:1), sequence (P23921 whole entry): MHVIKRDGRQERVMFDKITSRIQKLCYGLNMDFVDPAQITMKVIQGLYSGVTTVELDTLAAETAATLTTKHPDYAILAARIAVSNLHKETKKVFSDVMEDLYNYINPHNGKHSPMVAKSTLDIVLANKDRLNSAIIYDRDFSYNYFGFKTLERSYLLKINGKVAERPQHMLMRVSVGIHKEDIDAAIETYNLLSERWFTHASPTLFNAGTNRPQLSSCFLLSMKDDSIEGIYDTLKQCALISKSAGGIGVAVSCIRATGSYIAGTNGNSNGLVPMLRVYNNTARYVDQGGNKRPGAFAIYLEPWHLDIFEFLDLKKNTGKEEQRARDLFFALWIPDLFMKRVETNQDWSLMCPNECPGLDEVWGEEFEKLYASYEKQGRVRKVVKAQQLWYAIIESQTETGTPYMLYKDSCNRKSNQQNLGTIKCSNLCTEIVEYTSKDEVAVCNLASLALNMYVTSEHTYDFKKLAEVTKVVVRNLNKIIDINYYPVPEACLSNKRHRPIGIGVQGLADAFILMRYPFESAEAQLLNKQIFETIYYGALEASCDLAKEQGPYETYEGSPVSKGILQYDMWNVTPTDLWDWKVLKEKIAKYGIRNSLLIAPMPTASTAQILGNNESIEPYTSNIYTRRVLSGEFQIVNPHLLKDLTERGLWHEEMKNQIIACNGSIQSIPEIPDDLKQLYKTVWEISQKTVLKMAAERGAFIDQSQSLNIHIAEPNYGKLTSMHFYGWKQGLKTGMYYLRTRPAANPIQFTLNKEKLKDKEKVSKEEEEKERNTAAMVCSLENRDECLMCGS

IC50 [1] [nM] | IC50 [2] [µM] | SMILES
1000 to 10000 | > 50 | Cc1ccc(F)c(C(C)[C@@H](c2n[nH]c(=O)o2)N2CC(C)(C)c3cc(Cl)ccc3S2(=O)=O)c1C (stereo partly drawn) [Example 21, 5-((1S)-1-(6-chloro-4,4-dimethyl-1,1-dioxido-3,4-dihydro-2H-benzo[e][1,2]thiazin-2-yl)-2-(6-fluoro-2,3-dimethylphenyl)propyl)-1,3,4-oxadiazol-2(3H)-one]
100 to 1000 | 5 to 10 | Cc1ccc(F)c([C@@H](C)[C@@H](c2n[nH]c(=O)o2)N2CC(F)(F)c3cc(Cl)ccc3S2(=O)=O)c1C [Example 22, 5-((1S,2R)-1-(6-chloro-4,4-difluoro-1,1-dioxido-3,4-dihydro-2H-benzo[e][1,2]thiazin-2-yl)-2-(6-fluoro-2,3-dimethylphenyl)propyl)-1,3,4-oxadiazol-2(3H)-one]
100 to 1000 | 10 to 50 | Cc1ccc(F)c([C@@H](C)[C@@H](c2n[nH]c(=O)o2)N2CCc3c(Cl)cccc3S2(=O)=O)c1C [Example 23, 5-((1S,2R)-1-(5-chloro-1,1-dioxido-3,4-dihydro-2H-benzo[e][1,2]thiazin-2-yl)-2-(6-fluoro-2,3-dimethylphenyl)propyl)-1,3,4-oxadiazol-2(3H)-one]
≤ 100 | ≤ 5 | Cc1ccc(F)c([C@@H](C)[C@@H](c2n[nH]c(=O)o2)N2CCc3nc(Cl)ccc3S2(=O)=O)c1C [Example 24, 5-((1S,2R)-1-(6-chloro-1,1-dioxido-3,4-dihydro-2H-pyrido[2,3-e] [1,2]thiazin-2-yl)-2-(6-fluoro-2,3-dimethylphenyl)propyl)-1,3,4-oxadiazol-2(3H)-one]
≤ 100 | 10 to 50 | Cc1ccc(F)c([C@@H](C)[C@@H](c2n[nH]c(=O)o2)N2CC(C)(O)c3cc(Cl)ccc3S2(=O)=O)c1C (stereo partly drawn) [Example 25, 5-((1S,2R)-1-(6-chloro-4-hydroxy-4-methyl-1,1-dioxido-3,4-dihydro-2H-benzo[e][1,2]thiazin-2-yl)-2-(6-fluoro-2,3-dimethylphenyl)propyl)-1,3,4-oxadiazol-2(3H)-one]
≤ 100 | 10 to 50 | Cc1ccc(F)c(C(C)[C@@H](c2n[nH]c(=O)o2)N2C[C@H](O)[C@H](O)c3cc(Cl)ccc3S2(=O)=O)c1C (stereo partly drawn) [Example 26, 5-((1S)-1-((4S, 5R)-7-chloro-4,5-dihydroxy-1,1-dioxido-4,5-dihydrobenzo [f][1,2]thiazepin-2(3H)-yl)-2-(6-fluoro-2,3-dimethylphenyl)propyl)-1,3,4-oxadiazol-2(3H)-one]
100 to 1000 | > 50 | Cc1ccc(F)c([C@@H](C)[C@@H](c2n[nH]c(=O)o2)N2CCc3cc(Cl)ncc3S2(=O)=O)c1C [Example 27, 5-((1S,2R)-1-(6-chloro-1,1-dioxido-3,4-dihydro-2H-pyrido[4,3-e] [1,2]thiazin-2-yl)-2-(6-fluoro-2,3-dimethylphenyl)propyl)-1,3,4-oxadiazol-2(3H)-one]
